# Laboratory results published in patent EP1383510B1, “BISPHOSPHONATE CONJUGATES AND METHODS OF MAKING AND USING THE SAME” (priority 2001, dated 2002).
# Columns and labels:
# [1] = Binding of novel bisphosphonate conjugates on hydroxyapatite powder (UV spectra before/after treatment); conditions: pH 7.0
# Description: To estimate the binding of NBC on hydroxyapatite (the mineral component of bone) UV spectra of NBC at pH7 were recorded before and after treatment with hydroxyapatite. […] The supernatant was separated and an absorption spectrum of the supernatant was recorded.
# [2] = Biodistribution in rats of vitamin B6 - bisphosphonate conjugates in complex with 99mTc; format: in vivo; conditions: as complexing agent of the bone-scanning agent; general statement
# Description: The probes were prepared with molar concentration of about 10^-3 molar at pH 6.5, with a molar ratio SnCl2 to a conjugate 1:10 and 1 m^cl/ml pertechnetate.
# Male rats weighting […] were injected intravenously via the tail vein. The rats were sacrificed and dissected at selected times - 30 min., 60 min., and 120 min. The activity uptake in bone, blood, muscle, liver and spleen of each rat was measured. The results obtained indicate 40-45% of initial radioactivity injected was accumulated at bone skeleton after 60-90 min.
# [3] = HPLC-analysis of stability of nucleotide-bisphosphonate conjugate in serum; format: in vitro ADME; conditions: mouse/human serum; Fig.3
# Description: (§1) HPLC-analysis of hydrolytic stability of conjugate VI, Fig. 2, in buffer and in human serum was carried out under the following conditions: column Nucleosil C-18 (30-C18), 0-4% triethylammonium acetate (0.1 M, pH6.8); 20 min, flow rate -1 ml/min. […] The stability of the conjugate was decreased in mouse/human serum as it is evidenced from data on Fig.3. However, the conjugate is stable enough to be delivered to a skeleton in intact form.
# [4] = HPLC-analysis of hydrolytic stability of nucleotide-bisphosphonate conjugate in buffer; format: physicochemical
# Description: as §1
SMILES,% of bound compound [1],% of nonbound compound [1],uptake in bone [2],stability of the conjugate in serum [3],"hydrolytic stability (stable for several hours) ([4]; buffer solution at pH 5-7, several hours)",hydrolytic stability of the P-O-P bond ([4]; incubation either at pH >8.0 or at pH<3.0)
"Cc1ncc(COP(=O)(O)O)c(CNCCC(O)(P(=O)(O)O)P(=O)(O)O)c1O [(i), 3 - (N-[5 '-phospho] -pyridoxylamino) -1-hydroxypropyliden-1,1-bisphosphonic acid]",100%,0%,–,–,–,–
"Cc1ncc(CO)c(CNCCC(O)(P(=O)(O)O)P(=O)(O)O)c1O [(ii), 3-(N-pyridoxylamino) -1-hydroxypropyliden-1,1-bisphosphonic acid]",100%,0%,high and rapid uptake in bone,–,–,–
"Cc1ncc(COP(=O)(O)O)c(CNC(P(=O)(O)O)P(=O)(O)O)c1O [(iii), 1 - (N-[5 '-phospho] -pyridoxylamino)-methylene-1,1-bisphosphonic acid]",100%,0%,–,–,–,–
"Cc1ncc(CO)c(CNC(P(=O)(O)O)P(=O)(O)O)c1O [(iv), 1 -(N-pyridoxyl amino) -methylen-1, 1 -bisphosphonic acid]",100%,0%,–,–,–,–
"O=c1[nH]c(=O)n(COCCOCCOP(=O)(O)CP(=O)(O)O)cc1F [II, Anhydride of 1-([2-{hydroxyethoxy}ethoxy]methylene)-5-fluorouracil and methylenediphosphonic acid]","87,26%","12,74%",–,–,–,–
"O=c1[nH]c(=O)n(C2OC(COP(=O)(O)OP(=O)(O)CP(=O)(O)O)C(O)C2O)cc1F (stereo not shown) [III, Anhydride of 5-fluorouridine-5'-monophosphoric acid and methylenediphosphonic acid]","70,05%",–,–,–,–,–
"CC(O)(P(=O)(O)O)P(=O)(O)OP(=O)(O)OCC1OC(n2cc(F)c(=O)[nH]c2=O)C(O)C1O (stereo not shown) [VI, Anhydride of 5-fluorouridine-5'-monophosphoric acid and 1-hydroxyethylidene-1,1-bisphosphonic acid]","69,66%","30,34%",–,decreased,more than 97%,Hydrolytic cleavage of the conjugate P-O-P bond occurred
"CC(O)(P(=O)(O)O)P(=O)(O)OP(=O)(O)OCC1OC(n2ccc(=O)[nH]c2=O)C(O)C1O (stereo not shown) [VII, Anhydride of uridine-5 '-monophosphoric acid and 1-hydroxyethylidene-1,1 diphosphonic acid]","88,68%","11,32%",–,–,–,–
